Test results taken from article PMC7034070, “Synthesis, anti-inflammatory, cytotoxic, and COX-1/2 inhibitory activities of cyclic imides bearing 3-benzenesulfonamide, oxime, and β-phenylalanine scaffolds: a molecular docking study” (Journal of Enzyme Inhibition and Medicinal Chemistry, 2020).
Where “and” joins values, the source holds several entries; their conditions need not be identical. Equal entries are not always repeated.

Tests used:
mice = assay: Ulcerogenicity measurement; assay type: in vivo
Method: Ulcerogenicity was evaluated according to a previously reported method[6]^a,[17]^,[18]. The number and total length of the ulcers for each animal were measured and their averages were calculated and used as the ulcer indices.

COX-1 = biological target: T1, COX-1 (Ovis aries, UniProt P05979); assay: colorimetric COX (ovine) inhibitor screening assay kit; assay type: biochemical; details: ovine COX-1, mean of two determinations
T1 construct: purchased Cayman Chemicals Inc., Ann Arbour, MI
T1 sequence (P05979 25-600): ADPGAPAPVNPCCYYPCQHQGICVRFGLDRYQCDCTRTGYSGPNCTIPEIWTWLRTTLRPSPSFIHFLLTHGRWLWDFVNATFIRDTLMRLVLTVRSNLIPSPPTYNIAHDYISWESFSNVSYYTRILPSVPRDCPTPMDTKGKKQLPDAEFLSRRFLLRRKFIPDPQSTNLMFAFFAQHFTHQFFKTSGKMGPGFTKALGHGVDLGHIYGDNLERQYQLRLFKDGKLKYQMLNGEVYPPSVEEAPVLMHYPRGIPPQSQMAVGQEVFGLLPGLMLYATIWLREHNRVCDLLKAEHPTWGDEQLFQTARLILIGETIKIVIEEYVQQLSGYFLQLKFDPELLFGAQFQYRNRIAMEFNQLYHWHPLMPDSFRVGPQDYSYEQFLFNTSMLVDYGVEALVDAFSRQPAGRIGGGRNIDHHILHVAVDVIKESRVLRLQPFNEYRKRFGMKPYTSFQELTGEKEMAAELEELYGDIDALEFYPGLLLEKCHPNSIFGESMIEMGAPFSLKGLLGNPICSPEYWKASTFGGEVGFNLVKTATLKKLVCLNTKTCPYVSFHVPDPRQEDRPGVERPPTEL
Excerpt: (§1) To determine the relative ability of the test compounds and reference drugs to inhibit COX-1/COX-2 isozymes, we used the colorimetric COX (ovine) inhibitor screening assay kit (Cayman Chemicals Inc., Ann Arbour, MI), according to the manufacturer’s instructions[3]^,[10]^,[11]^,[20].

COX-2 = biological target: T2, COX-2 (Ovis aries, UniProt P79208); assay: as above; assay type: biochemical; details: for SI, selectivity index (COX-1 IC50/COX-2 IC50): ovine COX-1/COX-2; for IC50: ovine COX-2, mean of two determinations
T2 construct: purchased Cayman Chemicals Inc., Ann Arbour, MI
T2 sequence (P79208 17-603): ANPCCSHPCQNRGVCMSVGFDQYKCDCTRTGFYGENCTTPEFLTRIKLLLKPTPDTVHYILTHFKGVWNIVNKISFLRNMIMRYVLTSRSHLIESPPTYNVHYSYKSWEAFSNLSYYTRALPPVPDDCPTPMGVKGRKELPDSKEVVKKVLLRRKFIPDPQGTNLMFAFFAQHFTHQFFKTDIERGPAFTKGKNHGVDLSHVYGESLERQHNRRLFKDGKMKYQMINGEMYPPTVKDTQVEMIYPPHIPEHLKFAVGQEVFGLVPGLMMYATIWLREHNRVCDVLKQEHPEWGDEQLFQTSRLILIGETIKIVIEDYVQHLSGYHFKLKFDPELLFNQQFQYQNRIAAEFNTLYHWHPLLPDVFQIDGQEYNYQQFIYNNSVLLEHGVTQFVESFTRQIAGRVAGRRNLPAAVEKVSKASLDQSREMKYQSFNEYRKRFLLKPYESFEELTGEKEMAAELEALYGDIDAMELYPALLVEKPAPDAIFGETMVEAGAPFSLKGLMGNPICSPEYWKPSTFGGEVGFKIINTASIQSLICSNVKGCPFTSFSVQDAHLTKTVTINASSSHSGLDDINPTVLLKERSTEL
Excerpt: as §1

[1] = test system: carrageenan induced rat paw oedema; assay: rat carrageenan-induced foot paw oedema model; assay type: in vivo; details: for Mean % increase in paw weight ± SEM / % Inhibition of paw oedema from control group: 2 h after carrageenan; for Mean % increase in paw weight ± SEM: control group 165.6 ± 1.6; for % Inhibition of paw oedema from control group: single dose screen (Table 1)
Method: Anti-inflammatory assessment of the newly synthesised compounds was carried out using an in vivo rat carrageenan-induced foot paw oedema model, as reported previously[16]^,[17].

SNB-75 (CNS Cancer) = assay: NCI 59 cell line panel, single dose; assay type: cell-based; details: SNB-75, one dose 10.0 μM
59 cancer cell lines = assay: full NCI 59 cell line panel assay, single dose; assay type: cell-based; details: one dose 10.0 μM, 59 cell lines
HOP-92 (NSC Lung Cancer) = assay: NCI 59 cell line panel, single dose; assay type: cell-based; details: HOP-92, one dose 10.0 μM
[2] = test system: NCI-H522 (NSC Lung Cancer); assay: NCI 59 cell line panel, single dose; assay type: cell-based; details: NCI-H522, one dose 10.0 μM
UO-31 (Renal Cancer) = assay: NCI 59 cell line panel, single dose; assay type: cell-based; details: UO-31, one dose 10.0 μM
CAKI-1 (Renal Cancer) = assay: NCI 59 cell line panel, single dose; assay type: cell-based; details: CAKI-1, one dose 10.0 μM
T-47D (Breast Cancer) = assay: NCI 59 cell line panel, single dose; details: one dose 10.0 μM
HCT-116 (Colon Cancer) = assay: NCI 59 cell line panel, single dose; details: HCT-116, one dose 10.0 μM
[3] = test system: NCI-H226 (NSC Lung Cancer); assay: NCI 59 cell line panel, single dose; details: NCI-H226, one dose 10.0 μM
A498 (Renal Cancer) = assay: NCI 59 cell line panel, single dose; details: A498, one dose 10.0 μM
LOX IMVI (Melanoma) = assay: NCI 59 cell line panel, single dose; details: one dose 10.0 μM
DU-145 (Prostate Cancer) = assay: NCI 59 cell line panel, single dose; details: DU-145, one dose 10.0 μM
EKVX (NSC Lung Cancer) = assay: NCI 59 cell line panel, single dose; details: one dose 10.0 μM
PC-3 (Prostate Cancer) = assay: NCI 59 cell line panel, single dose; assay type: cell-based; details: PC-3, one dose 10.0 μM
HCT-15 (Colon Cancer) = assay: NCI 59 cell line panel, single dose; details: HCT-15, one dose 10.0 μM
PRMI-8226 (Leukaemia) = assay: NCI 59 cell line panel, single dose; details: PRMI-8226, one dose 10.0 μM
U251 (CNS Cancer) = assay: NCI 59 cell line panel, single dose; details: U251, one dose 10.0 μM
SR (Leukaemia) = assay: NCI 59 cell line panel, single dose; details: one dose 10.0 μM
HT29 (Colon Cancer) = assay: NCI 59 cell line panel, single dose; details: HT29, one dose 10.0 μM
[4] = test system: MDA-MB-231/ATCC (Breast Cancer); assay: NCI 59 cell line panel, single dose; details: one dose 10.0 μM
[5] = test system: MDA-MB-468 (Breast Cancer); assay: NCI 59 cell line panel, single dose; details: MDA-MB-468, one dose 10.0 μM
[6] = test system: NCI-H23 (NSC Lung Cancer); assay: NCI 59 cell line panel, single dose; details: NCI-H23, one dose 10.0 μM
MOLT-4 (Leukaemia) = assay: NCI 59 cell line panel, single dose; details: MOLT-4, one dose 10.0 μM
SF-539 (CNS Cancer) = assay: NCI 59 cell line panel, single dose; details: SF-539, one dose 10.0 μM
SF-295 (CNS Cancer) = assay: NCI 59 cell line panel, single dose; details: SF-295, one dose 10.0 μM

Row | IC50 (COX-1) [nM] | SI, selectivity index (COX-1 IC50/COX-2 IC50) (COX-2) | IC50 (COX-2) [nM] | melting point [°C] | Structure (SMILES) | Mean % increase in paw weight ± SEM [1] [%] | % Inhibition of paw oedema from control group [1] | GI% (SNB-75 (CNS Cancer)) [%] | PCE (positive cytotoxic effect: cell lines with growth inhibition >10% / total number of cell lines) (59 cancer cell lines) | GI% (UO-31 (Renal Cancer)) [%] | other results
1 | > 50000 | >333.3 | 150 | 269 to 271 | CC(=NO)c1ccc(N2C(=O)c3ccc([N+](=O)[O-])cc3C2=O)cc1 [Compound 18, 2-(4-(1-(Hydroxyimino)ethyl)phenyl)-5-nitroisoindoline-1,3-dione] | 31.6 ± 0.4 | 82.9% and 82.9 ± 0.8% | – | – | – | Average number of ulcers (mice; mice): 2; Mean sum of lengths of elongated ulcer (mice; mice, ± SEM): 0.9 ± 0.08 mm; level of ulcerogenic activity (in words) (mice; relative to diclofenac and celecoxib): very low levels of ulcerogenic activity; Percentage inhibition of paw oedema from control group ([1]; dose 45 mg/kg): 70.1%; Percentage inhibition of paw oedema from control group ([1]; dose 65 mg/kg): 82.9%; Percentage inhibition of paw oedema from control group ([1]; dose 80 mg/kg): 91.9%; ED50 ([1]; from three graded doses (45, 65, 80 mg/kg)): 35.4 mg/kg
2 | > 50000 | >12.5 | 4000 | 151 to 153 | CC(C)(C)c1ccc2c(c1)C(=O)N(c1cccc(S(N)(=O)=O)c1)C2=O [Compound 6, 3-(5-(tert-Butyl)-1,3-dioxoisoindolin-2-yl)benzenesulfonamide] | 106.1 ± 0.9 | 40.9% and 40.9 ± 0.6% | 12 | 2/59 | – | GI% (HOP-92 (NSC Lung Cancer)): 19%
3 | > 50000 | >250.0 | 200 | 159 to 161 | NS(=O)(=O)c1cccc(N2C(=O)C3CC=CCC3C2=O)c1 (centres unmarked) [Compound 3, 3-(1,3-Dioxo-1,3,3a,4,7,7a-hexahydro-2H-isoindol-2-yl)benzenesulfonamide] | 42.4 ± 0.2 | 77.0% and 77.0 ± 0.6% | 12 | 3/59 | 16 | GI% [2]: 12%
4 | > 50000 | >192.3 | 260 | 195 to 197 | NS(=O)(=O)c1cccc(N2C(=O)CCC2=O)c1 [Compound 2, 3-(2,5-Dioxopyrrolidin-1-yl)benzenesulfonamide] | 53.2 ± 0.4 | 71.2% and 71.2 ± 0.5% | – | 3/59 | 13 | GI% [2]: 12%; GI% (CAKI-1 (Renal Cancer)): 12%
5 | – | – | – | – | NS(=O)(=O)c1cccc(N2C(=O)c3c(Cl)c(Cl)c(Cl)c(Cl)c3C2=O)c1 [Compound 8] | 134.0 ± 0.9 | 26.9% and 26.9 ± 0.5% | 13 | 3/59 | 17 | GI% (HOP-92 (NSC Lung Cancer)): 11%
6 | > 50000 | >178.6 | 280 | > 300 | CC(=NO)c1ccc(N2C(=O)c3cccc4cccc(c34)C2=O)cc1 [Compound 19, 2-(4-(1-(Hydroxyimino)ethyl)phenyl)-1H-benzo[de]isoquinoline-1,3(2H)-dione] | 57.6 ± 0.5 | 68.8% and 68.8 ± 0.4% | – | – | – | –
7 | > 50000 | >227.3 | 220 | 184 to 186 | CC(=NO)c1ccc(N2C(=O)CCC2=O)cc1 [Compound 11, 1-(4-(1-(Hydroxyimino)ethyl)phenyl)pyrrolidine-2,5-dione] | 45.0 ± 0.3 | 75.6% and 75.6 ± 0.6% | – | – | – | –
8 | – | – | – | – | Cc1ccc(NC(=O)c2ccc(CN3CCN(C)CC3)cc2)cc1Nc1nccc(-c2cccnc2)n1 [Imatinib] | – | – | – | 20/59 | – | GI% (T-47D (Breast Cancer)): 18.6%; GI% (HCT-116 (Colon Cancer)): 18.6%; GI% [3]: 10.6%; GI% (A498 (Renal Cancer)): 13.7%; GI% (LOX IMVI (Melanoma)): 11.6%; GI% (DU-145 (Prostate Cancer)): 14.4%; GI% (EKVX (NSC Lung Cancer)): 15.7%; GI% (PC-3 (Prostate Cancer)): 10.6%; GI% (HCT-15 (Colon Cancer)): 11.5%; GI% (PRMI-8226 (Leukaemia)): 12.6%; GI% (U251 (CNS Cancer)): 10.6%; GI% (SR (Leukaemia)): 14.6%; GI% (HT29 (Colon Cancer)): 47.1%; GI% [4]: 11.2%; GI% [5]: 29.1%; GI% [6]: 17.1%; GI% (MOLT-4 (Leukaemia)): 18.0%; GI% (SF-539 (CNS Cancer)): 24.5%; GI% (SF-295 (CNS Cancer)): 15.1%
